Source: US20240158446A1, “CYCLIC COMPOUND HAVING SELECTIVE INHIBITORY ACTION ON KRAS OVER HRAS AND NRAS” (CHUGAI SEIYAKU KABUSHIKI KAISHA, priority 2021, published 2024)
Where a SMILES comes first, the peptide text is derived from it. Bridges are numbered along the chain shown (N, C = ends). [ ]: non-standard residue; d: D form. The star is where a group is joined. hPhe(3-Cl-4-CF3) = N[C@@H](CCc1ccc(C(F)(F)F)c(Cl)c1)C(=O)O; NPrPhe(4-CF3) = CCCN[C@@H](Cc1ccc(C(F)(F)F)cc1)C(=O)O; NEtPhe(4-CF3) = CCN[C@@H](Cc1ccc(C(F)(F)F)cc1)C(=O)O; hPhe(3,4-Cl2) = N[C@@H](CCc1ccc(Cl)c(Cl)c1)C(=O)O; Abu(4,4,4-F3) = N[C@@H](CC(F)(F)F)C(=O)O; NMeGly(cPent) = CN[C@H](C(=O)O)C1CCCC1; cisHyp = O=C(O)[C@@H]1C[C@H](O)CN1; Hyp = O=C(O)[C@@H]1C[C@@H](O)CN1; Gly(cBu) = N[C@H](C(=O)O)C1CCC1; NMeD = CN[C@@H](CC(=O)O)C(=O)O; NMeL = CN[C@@H](CC(C)C)C(=O)O; hPip = O=C(O)[C@@H]1CCCCCN1; Ac6c = NC1(C(=O)O)CCCCC1; Morpholide = C1CN(*)CCO1; NMeA = CN[C@@H](C)C(=O)O; Ac5c = NC1(C(=O)O)CCCC1; Aze = O=C(O)[C@@H]1CCN1; Ethyl(2,2-F2) = FC(F)C*; Abu = CC[C@H](N)C(=O)O; Sar = CNCC(=O)O

Tests used:
[1] = target: GDP-bound HRAS wild-type protein (Homo sapiens, UniProt P01112); assay: Binding to HRAS by surface plasmon resonance (SPR), Single Cycle Kinetics; conditions: SPR, GDP-bound HRAS wild-type protein vs GDP-bound KRAS wild-type protein
[2] = target: GDP-bound NRAS wild-type protein (Homo sapiens, UniProt P01111); assay: Binding to NRAS by surface plasmon resonance (SPR), Single Cycle Kinetics; conditions: SPR, GDP-bound NRAS wild-type protein vs GDP-bound KRAS wild-type protein
[3] = target: GDP-bound KRAS wild-type protein (Homo sapiens, UniProt P01116); assay: Binding to KRAS by surface plasmon resonance (SPR), Single Cycle Kinetics; conditions: SPR Single Cycle Kinetics, GDP-bound KRAS wild-type protein, 1:1 binding model; read-out: KRAS KD
Sequence of GDP-bound KRAS wild-type protein (P01116 whole entry): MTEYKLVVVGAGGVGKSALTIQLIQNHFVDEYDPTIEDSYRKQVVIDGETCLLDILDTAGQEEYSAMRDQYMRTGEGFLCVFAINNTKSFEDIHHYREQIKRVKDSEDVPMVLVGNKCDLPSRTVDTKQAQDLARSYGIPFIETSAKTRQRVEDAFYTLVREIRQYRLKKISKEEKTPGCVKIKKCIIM

Sequence of GDP-bound HRAS wild-type protein (P01112 whole entry): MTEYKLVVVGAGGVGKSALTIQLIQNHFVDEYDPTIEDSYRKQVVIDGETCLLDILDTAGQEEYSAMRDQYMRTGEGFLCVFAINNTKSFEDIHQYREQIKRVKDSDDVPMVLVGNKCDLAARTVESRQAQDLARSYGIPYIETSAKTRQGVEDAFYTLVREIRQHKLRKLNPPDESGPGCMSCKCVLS
Sequence of GDP-bound NRAS wild-type protein (P01111 whole entry): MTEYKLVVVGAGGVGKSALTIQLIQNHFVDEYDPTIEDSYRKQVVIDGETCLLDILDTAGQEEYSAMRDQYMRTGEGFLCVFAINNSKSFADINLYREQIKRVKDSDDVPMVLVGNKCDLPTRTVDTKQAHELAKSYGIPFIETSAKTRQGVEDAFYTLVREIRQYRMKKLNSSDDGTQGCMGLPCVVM

SMILES	HRAS/KRAS (ratio of KD value for HRAS to KD value for KRAS) [1]	NRAS/KRAS (ratio of KD value for NRAS to KD value for KRAS) [2]	Kd [3] [nM]
CCCN1C(=O)CN(C)C(=O)CN(C)C(=O)[C@H]([C@@H](C)CC)NC(=O)[C@H](CC(C)C)N(C)C(=O)C[C@@H](C(=O)N2CCOCC2)N(C)C(=O)[C@H](C2CCCC2)N(C)C(=O)C2(CCCC2)NC(=O)[C@@H]2C[C@@H](OCC)CN2C(=O)[C@H](CCc2ccc(C(F)(F)F)c(Cl)c2)NC(=O)CN(C)C(=O)[C@@H]1Cc1ccc(C(F)(F)F)cc1 [PP0233] ([NMeL]I[Sar][Sar][NPrPhe(4-CF3)][Sar][hPhe(3-Cl-4-CF3)][Hyp](Et)[Ac5c][NMeGly(cPent)][NMeD]-Morpholide; lactam N-11)	C (A compound having a KD ratio of 0.1 or more and less than 3 is denoted as C)	B (a compound having 3 or more and less than 10 is denoted as B)	0.052
CC[C@H](C)[C@@H]1NC(=O)[C@H](CC(C)C)N(C)C(=O)C[C@@H](C(=O)N2CCOCC2)N(C)C(=O)[C@H](C2CCCC2)N(C)C(=O)C2(CCCCC2)NC(=O)[C@@H]2CCCN2C(=O)[C@H](CCc2ccc(C(F)(F)F)c(Cl)c2)NC(=O)CN(C)C(=O)[C@H](Cc2ccc(C(F)(F)F)cc2)N(CC)C(=O)CN(C)C(=O)CN(C)C1=O [PP0236] ([NMeL]I[Sar][Sar][NEtPhe(4-CF3)][Sar][hPhe(3-Cl-4-CF3)]P[Ac6c][NMeGly(cPent)][NMeD]-Morpholide; lactam N-11)	C (A compound having a KD ratio of 0.1 or more and less than 3 is denoted as C)	B (a compound having 3 or more and less than 10 is denoted as B)	0.54
CC[C@H](C)[C@@H]1NC(=O)[C@H](CC(C)C)N(C)C(=O)C[C@@H](C(=O)N2CCOCC2)N(C)C(=O)[C@H](C2CCCC2)N(C)C(=O)C2(CCCC2)NC(=O)[C@@H]2CCCN2C(=O)[C@H](CCc2ccc(Cl)c(Cl)c2)NC(=O)CN(C)C(=O)[C@H](Cc2ccc(C(F)(F)F)cc2)N(CC)C(=O)CN(C)C(=O)CN(C)C1=O [PP0237] ([NMeL]I[Sar][Sar][NEtPhe(4-CF3)][Sar][hPhe(3,4-Cl2)]P[Ac5c][NMeGly(cPent)][NMeD]-Morpholide; lactam N-11)	C (A compound having a KD ratio of 0.1 or more and less than 3 is denoted as C)	B (a compound having 3 or more and less than 10 is denoted as B)	0.28
CCCN1C(=O)[C@@H]2CCN2C(=O)[C@H](C)N(C)C(=O)[C@H]([C@@H](C)CC)NC(=O)[C@H](CC(C)C)N(C)C(=O)C[C@@H](C(=O)N2CCOCC2)N(C)C(=O)[C@H](C2CCCC2)N(C)C(=O)C2(CCCC2)NC(=O)[C@@H]2C[C@@H](O)CN2C(=O)[C@H](CCc2ccc(C(F)(F)F)c(Cl)c2)NC(=O)CN(C)C(=O)[C@@H]1Cc1ccc(C(F)(F)F)cc1 [PP0239]	B (a compound having 3 or more and less than 10 is denoted as B)	C (A compound having a KD ratio of 0.1 or more and less than 3 is denoted as C)	0.05
CCCN1C(=O)CN(C)C(=O)CN(C)C(=O)[C@H]([C@@H](C)CC)NC(=O)[C@H](CC(C)C)N(C)C(=O)C[C@@H](C(=O)N2CCOCC2)N(C)C(=O)[C@H](C2CCCC2)N(C)C(=O)C2(CCCC2)NC(=O)[C@@H]2C[C@@H](O)CN2C(=O)[C@H](CCc2ccc(C(F)(F)F)c(Cl)c2)NC(=O)CN(C)C(=O)[C@@H]1Cc1ccc(C(F)(F)F)cc1 [PP0241] ([NMeL]I[Sar][Sar][NPrPhe(4-CF3)][Sar][hPhe(3-Cl-4-CF3)][Hyp][Ac5c][NMeGly(cPent)][NMeD]-Morpholide; lactam N-11)	C (A compound having a KD ratio of 0.1 or more and less than 3 is denoted as C)	B (a compound having 3 or more and less than 10 is denoted as B)	0.052
CCCN1C(=O)[C@@H]2CCN2C(=O)[C@H](C)N(C)C(=O)[C@H]([C@@H](C)CC)NC(=O)[C@H](CC(C)C)N(C)C(=O)C[C@@H](C(=O)N2CCOCC2)N(C)C(=O)[C@H](C2CCCC2)N(C)C(=O)C2(CCCC2)NC(=O)[C@@H]2C[C@H](OCC)CN2C(=O)[C@H](CCc2ccc(C(F)(F)F)c(Cl)c2)NC(=O)CN(C)C(=O)[C@@H]1Cc1ccc(C(F)(F)F)cc1 [PP0242] ([NMeL]I[NMeA][Aze][NPrPhe(4-CF3)][Sar][hPhe(3-Cl-4-CF3)][cisHyp](Et)[Ac5c][NMeGly(cPent)][NMeD]-Morpholide; lactam N-11)	C (A compound having a KD ratio of 0.1 or more and less than 3 is denoted as C)	C (A compound having a KD ratio of 0.1 or more and less than 3 is denoted as C)	0.2
CCCN1C(=O)CN(C)C(=O)CN(C)C(=O)[C@H]([C@@H](C)CC)NC(=O)[C@H](CC(C)C)N(C)C(=O)C[C@@H](C(=O)N2CCOCC2)N(C)C(=O)[C@H](C2CCCC2)N(C)C(=O)C2(CCCC2)NC(=O)[C@@H]2C[C@H](OCC)CN2C(=O)[C@H](CCc2ccc(C(F)(F)F)c(Cl)c2)NC(=O)CN(C)C(=O)[C@@H]1Cc1ccc(C(F)(F)F)cc1 [PP0243] ([NMeL]I[Sar][Sar][NPrPhe(4-CF3)][Sar][hPhe(3-Cl-4-CF3)][cisHyp](Et)[Ac5c][NMeGly(cPent)][NMeD]-Morpholide; lactam N-11)	C (A compound having a KD ratio of 0.1 or more and less than 3 is denoted as C)	B (a compound having 3 or more and less than 10 is denoted as B)	0.31
CCCN1C(=O)CN(C)C(=O)CN(C)C(=O)[C@H]([C@@H](C)CC)NC(=O)[C@H](CC(C)C)N(C)C(=O)C[C@@H](C(=O)N2CCOCC2)N(C)C(=O)[C@H](C2CCCC2)N(C)C(=O)C2(CCCC2)NC(=O)[C@@H]2C[C@@H](OCC(F)F)CN2C(=O)[C@H](CCc2ccc(C(F)(F)F)c(Cl)c2)NC(=O)CN(C)C(=O)[C@@H]1Cc1ccc(C(F)(F)F)cc1 [PP0246] ([NMeL]I[Sar][Sar][NPrPhe(4-CF3)][Sar][hPhe(3-Cl-4-CF3)][Hyp](Ethyl(2,2-F2))[Ac5c][NMeGly(cPent)][NMeD]-Morpholide; lactam N-11)	C (A compound having a KD ratio of 0.1 or more and less than 3 is denoted as C)	B (a compound having 3 or more and less than 10 is denoted as B)	0.054
CCCN1C(=O)CN(C)C(=O)CN(C)C(=O)[C@H]([C@@H](C)CC)NC(=O)[C@@H]2CCCCCN2C(=O)C[C@@H](C(=O)N2CCOCC2)N(C)C(=O)[C@H](C2CCCC2)N(C)C(=O)C2(CCCC2)NC(=O)[C@@H]2CCCN2C(=O)[C@H](CCc2ccc(C(F)(F)F)c(Cl)c2)NC(=O)CN(C)C(=O)[C@@H]1Cc1ccc(C(F)(F)F)cc1 [PP0247] ([hPip]I[Sar][Sar][NPrPhe(4-CF3)][Sar][hPhe(3-Cl-4-CF3)]P[Ac5c][NMeGly(cPent)][NMeD]-Morpholide; lactam N-11)	C (A compound having a KD ratio of 0.1 or more and less than 3 is denoted as C)	B (a compound having 3 or more and less than 10 is denoted as B)	0.38
CCCN1C(=O)CN(C)C(=O)CN(C)C(=O)[C@H](CC)NC(=O)[C@H](CC(C)C)N(C)C(=O)C[C@@H](C(=O)N2CCOCC2)N(C)C(=O)[C@H](C2CCCC2)N(C)C(=O)C2(CCCC2)NC(=O)[C@@H]2CCCN2C(=O)[C@H](CCc2ccc(C(F)(F)F)c(Cl)c2)NC(=O)CN(C)C(=O)[C@@H]1Cc1ccc(C(F)(F)F)cc1 [PP0248] ([NMeL][Abu][Sar][Sar][NPrPhe(4-CF3)][Sar][hPhe(3-Cl-4-CF3)]P[Ac5c][NMeGly(cPent)][NMeD]-Morpholide; lactam N-11)	B (a compound having 3 or more and less than 10 is denoted as B)	B (a compound having 3 or more and less than 10 is denoted as B)	1.1
CCCN1C(=O)CN(C)C(=O)CN(C)C(=O)[C@H](CC(F)(F)F)NC(=O)[C@H](CC(C)C)N(C)C(=O)C[C@@H](C(=O)N2CCOCC2)N(C)C(=O)[C@H](C2CCCC2)N(C)C(=O)C2(CCCC2)NC(=O)[C@@H]2CCCN2C(=O)[C@H](CCc2ccc(C(F)(F)F)c(Cl)c2)NC(=O)CN(C)C(=O)[C@@H]1Cc1ccc(C(F)(F)F)cc1 [PP0249] ([NMeL][Abu(4,4,4-F3)][Sar][Sar][NPrPhe(4-CF3)][Sar][hPhe(3-Cl-4-CF3)]P[Ac5c][NMeGly(cPent)][NMeD]-Morpholide; lactam N-11)	C (A compound having a KD ratio of 0.1 or more and less than 3 is denoted as C)	B (a compound having 3 or more and less than 10 is denoted as B)	0.69
CCCN1C(=O)CN(C)C(=O)CN(C)C(=O)[C@H](C2CCC2)NC(=O)[C@H](CC(C)C)N(C)C(=O)C[C@@H](C(=O)N2CCOCC2)N(C)C(=O)[C@H](C2CCCC2)N(C)C(=O)C2(CCCC2)NC(=O)[C@@H]2CCCN2C(=O)[C@H](CCc2ccc(C(F)(F)F)c(Cl)c2)NC(=O)CN(C)C(=O)[C@@H]1Cc1ccc(C(F)(F)F)cc1 [PP0250] ([NMeL][Gly(cBu)][Sar][Sar][NPrPhe(4-CF3)][Sar][hPhe(3-Cl-4-CF3)]P[Ac5c][NMeGly(cPent)][NMeD]-Morpholide; lactam N-11)	C (A compound having a KD ratio of 0.1 or more and less than 3 is denoted as C)	B (a compound having 3 or more and less than 10 is denoted as B)	0.12
